Reference: a melting point compilation (Tetko et al.; mined from patent text by program, amines drawn as free bases though some values may be those of a salt)

| SMILES | melting point [°C] |
| --- | --- |
| O=C(/C=C/C=C/c1ccccc1)NCCCOc1ccc(CC(=O)NO)cc1 | 198 to 201 |
| COc1ccc(NC(=O)C(=O)N2CCC(Cc3ccc(F)cc3)CC2)cc1 | 105 to 107 |
| CCOC(=O)c1nc(C=Cc2cccc(Cl)c2)oc1C | 116 to 117 |
| O=c1cc(C(F)(F)F)ccn1-c1c(Cl)cc(CO)cc1Cl | 151 to 152 |
| Clc1ccc2nc(Cl)oc2c1 | 40 to 44 |
| CC(O)COc1cccc2oc(C(N)=O)cc(=O)c12 (stereo not drawn) | 229 to 231 |
| O=c1[nH]c2cc([N+](=O)[O-])ccc2n(Cc2ccc(P(=O)(O)O)cc2)c1=O | 253 to 265 |
| COc1c(Cl)cc(NC(=O)OCCCl)c(OC)c1[N+](=O)[O-] | 93 |
| CN(O)C(=O)NCCCCCCCOCc1ccccc1 | 69 to 70.5 |
| CC1(C)Oc2ccc(C#N)cc2C(Oc2ccncn2)C1(C)O (stereo not drawn) | 103 to 105 |
| Cc1cc(Br)cnc1C#N | 86 to 88 |
| CC(=O)/C=C(\C)c1ccc(C2CCCC2)cc1 | 33 to 33.5 |
| CS(=O)c1ccc2c(c1)C(=O)C1(CC1)O2 (stereo not drawn) | 87 to 90 |
| O=C(O)c1cccc(NC(=O)C(COC2CCCCO2)NS(=O)(=O)c2ccc(Cl)cc2)c1 (stereo not drawn) | 84 to 124 |
| CCc1c(Cl)nc(OCc2ccccc2)nc1OCc1ccccc1 | 53 to 54 |
| CC1(C)OC(=O)Nc2ccc(-c3cc(C(F)(F)F)cc(C(F)(F)F)c3)cc21 | 258 to 260 |
| CC(CN1CC(=O)N(CN2CCSCC2)C(=O)C1)N1CC(=O)NC(=O)C1 (stereo not drawn) | 206 to 208 |
| O=C1CCCC(CN2CC=C(c3ccccc3)CC2)C1 (stereo not drawn) | 56 to 59 |
| CC(C)C[C@H](NC(=O)c1cccs1)C(=O)N[C@@H](C(C)C)[C@@H](O)c1c(-c2ccccc2)c1=O | 171 to 172 |
| CC(S)C(=O)N1c2ccccc2CCC1C(=O)O (stereo not drawn) | 141 to 143 |
| NC(=O)CC1CN=C(c2cc3cc(OC(F)(F)F)cc(NS(=O)(=O)c4cccs4)c3[nH]2)S1 (stereo not drawn) | 239 to 240 |
| COc1cc(C(C)=O)ccc1OCCCN1C2CCC1CC(c1n[nH]c3ccccc13)C2 (stereo not drawn) | 173 to 175 |
| O=C1CCN(Cc2ccc(C(F)(F)F)cc2C(F)(F)F)CC1C(c1ccc(F)cc1)c1ccc(F)cc1 (stereo not drawn) | 104 to 105 |
| COc1cc2c(cc1OCc1ccccc1)CCCC(C(=O)N1CCN(C(=O)c3cc(OC)c(OC)c(OC)c3)CC1)=C2 | 140 to 142 |

| SMILES | melting point [°C] |
| --- | --- |
| COc1ccc2c(=O)c(NC(=O)C(=O)O)coc2c1 | 236 to 238 |
| COC(=O)C1=C(CBr)Nc2ncnn2C1c1cccs1 (stereo not drawn) | 155 |
| Cc1c(C(=O)c2ccccc2)c(NC(=O)CNO)cn1C | 140 to 142 |
| CC(C)(C)C(COC(N)=O)(NC(=O)C(=O)c1c[nH]c2ccc(Br)cc12)c1c[nH]c2ccc(Br)cc12 (stereo not drawn) | 207 |
| O=C(c1ccc(I)cc1)N1CCOCC1 | 116 to 117 |
| CCOC(=O)CCc1c[nH]c2ccc([N+](=O)[O-])cc12 | 118 to 121 |
| O=S1NC(CCCc2ccc3ccccc3c2)=NO1 (stereo not drawn) | 139 to 140 |
| CCCn1c(Cl)nc2ccc(I)cc2c1=O | 98 to 100 |
| CN(C)CC(F)(F)[C@H](O)[C@@H](N)CC1CCCCC1 | 47 to 49 |
| CC(C)(C)OC(=O)N1CCN(C(=O)c2ccncc2)CC1 | 139 to 140 |
| N#Cc1c(F)c(F)c(O)c(F)c1F | 128 to 129 |
| CC(=O)OCC(C(=O)OC(C)(C)C)C(=O)c1ccccc1 (stereo not drawn) | 72 to 74 |
| C=C(C)COc1cc(C)c(NC(C)=O)cc1C | 128 to 132 |
| O=C(O)Cc1ccc(-n2cc(Cl)cn2)cc1Cl | 152 to 153 |
| COc1ccc(/C=C/C(=O)Nc2ccccc2)cc1OC | 131 to 133 |
| Cc1nc2sccn2c(=O)c1O | 225 to 227 |
| CCCc1nc2c(N)nc3cc(Oc4ccc(C#N)cc4)ccc3c2n1CC(C)C | 223 to 225 |
| COc1ccc(Cn2[nH]c(N)cc2=O)cc1 | 161 |
| Cc1ncoc1C(=O)Nc1ccc(-n2nc(C(F)(F)F)cc2C2CC2)c(F)c1 | 148 to 150 |
| O=c1[nH]cnc2ccc(F)cc12 | 252 to 255 |
| COc1ccc2nc(N3CCN(C[C@H]4COc5ccc6nc(C)ccc6c5O4)CC3)ccc2c1 | 95 to 97 |
| FC(F)(F)C(F)(F)C(F)(F)C(F)(F)C(F)(F)C(F)(F)C(F)(F)C(F)(F)C(F)(F)Br | 30 |
| CS(=O)(=O)NC1(c2ccc(I)cc2)CC1 | 101 to 102 |

The remaining lines, values ahead:

| melting point [°C] | SMILES |
| --- | --- |
| 154 | COc1cc2c(cc1OC)CN(CCOc1ccc(NC(=O)c3cccc4c(=O)c5ccccc5[nH]c34)cc1)CC2 |
| 214 to 216 | COc1ccc(Oc2c(Br)cc(C#N)cc2Br)cc1Cc1ccc(=O)[nH]n1 |
| 173 to 175 | O=[N+]([O-])c1cc(S(=O)c2ccc(-c3ccc(Br)cc3)cc2)ccc1Cl (stereo not drawn) |
| 167 to 170 | CC(C)(C)CN1c2ccccc2C(C)(C)C12C=Nc1c(ccc3ccccc13)O2 (stereo not drawn) |
| 232 | CCn1c2c(c3ccccc31)S(=O)(=O)N(C)C(C(=O)Nc1ccccn1)=C2O |
| 111 to 113 | c1ccc(Nc2ccncc2Oc2ccccc2)cc1 |
| 126 | Clc1ccccc1-c1nn2cc(-c3ccccc3)nc2s1 |
| 300 to 302 | COc1ccc(Cc2n[nH]c3c2c(=O)n(-c2ccccc2)c2ncccc32)cc1 |
| 152 to 153 | Cc1oc(-c2ccccc2)nc1COc1cc(COc2ccccc2CC(=O)O)on1 |
| 120 to 121 | O=c1cc(-c2cccc(Cl)c2)oc2ccc(OCCCCCCN3CCC(O)CC3)cc12 |
| 192 to 193 | N#Cc1cc(=O)c2c(o1)c1ccccc1n2-c1ccccc1 |
| 225 | Cc1cc(COc2ccc(S(=O)(=O)NC[C@@H](C(=O)NO)N3CCNCC3)cc2)c2ccccc2n1 |
| 161 to 163 | Nc1nc(Cl)cc(Oc2ccc3c(c2)OCCN3C(=O)OCc2ccccc2)n1 |
| 181 to 183 | CNc1nc(-c2cccc(-c3cncc4ccccc34)c2)c2cc(OC)c(OC)cc2n1 |
| 207 to 208 | Cc1[nH]c2cccc(/C=C/C(=O)OCc3ccccc3)c2c1Cn1ccnc1 |
| 149 to 152 | Cc1ncc(-c2ccccc2)c(C(=O)N(C)Cc2cc(C(F)(F)F)cc(C(F)(F)F)c2)n1 |
| 191 | C[C@]1(O)CCCC[C@H]1n1cnc(C(=O)N2CCNC[C@H]2Cc2ccccc2)c1-c1ccccc1 |
| 146 to 147 | O=c1ccn(-c2cccc(Cl)c2)nc1-c1ccnn1-c1ccccc1 |
| 178 to 180 | Nc1ccc(C=Cc2ccc3ccccc3n2)cc1 |
| 174 to 175 | c1ccc(Nc2nc(N3CCN(c4ccccc4)CC3)nc3c2SCC3)cc1 |
| 202 | CN(C)C(=O)C(c1ccccc1)(c1ccccc1)c1ncc[nH]1 |
| 147 to 148 | Cc1noc(NS(=O)(=O)c2ccccc2-c2ccsc2)c1C |
| 230 to 231 | CC(c1oc2ccc(Br)cc2c(=O)c1-c1ccccc1)n1cnc2c(N)ncnc21 (stereo not drawn) |
| 187 | Cc1nccn1-c1cccc(C2=Nc3ccc(-c4ccccc4F)cc3NC(=O)C2)c1 |
| 149 to 151 | O=c1c(-c2ccccc2)cc(Cl)c2n1C=CSc1ccsc1-2 |
| 80 to 85 | COc1ccc(CSc2ccc([N+](=O)[O-])cc2CNCCc2ccccc2)cc1 |
